According to patent US7572770B2, “Use of an interleukin 1 receptor antagonist and/or pyrrolidinedithiocarbamate for the treatment or prophylaxis of type 2 diabetes” (University of Zurich, priority 2002, dated 2009):

Experiments:
[1] = test system: human islets; assay: Insulin release and content of human islets, leptin/siRNA study; format: cell-based
Protocol: (§1) Islet isolation and cell culture. Islets were isolated from pancreases of ten organ donors at the Department of Surgery, University of Geneva Medical Center, as described (32-34). The islet purity was >95%, as judged by dithizone staining (if this degree of purity was not primarily achieved by routine isolation, islets were handpicked). […] For long-term in vitro studies, the islets were cultured on extracellular matrix-coated plates derived from bovine corneal endothelial cells (Novamed Ltd., Jerusalem, Israel), allowing the cells to attach to the dishes and spread, preserving their functional integrity (7;35). Islets were cultured in CMRL 1066 medium containing 100 U/ml penicillin, 100 μg/ml streptomycin and 10% fetal calf serum (Invitrogen Corporation, Paisley, U.K.), hereafter referred to as culture medium. Two days after plating, when most islets were attached and began to flatten, the medium was changed to culture medium containing 5.5, 11.1 or 33.3 mM glucose. In some experiments, islets were additionally cultured with 5, 10 or 500 nM rh leptin (PeproTech, London, UK), 500 ng/ml rh IL-1Ra (R&D Systems Inc., Minneapolis, Minn.) or 50 nM small interfering RNA (siRNA) as described below.
(§2) RNA interference. RNAs of 21 nucleotides, designed to target human IL-1Ra (5′AUCUGCAGAGGCCUCCGCAtt3′/5′UGCGGAGGCCUCUGCAGAUtt3′) and scrambled siRNA were synthesized by Ambion (Austin, Tex.). siRNAs were transfected using SiPortAmine™ according to the manufacturer's instructions (Ambion).
Insulin release and content. To determine acute insulin release in response to glucose stimulation, islets were washed in Kreb's ringer bicarbonate buffer (KRB-Hepes, pH 7.4: 4.8 mM KCl, 134 mM NaCl, 5 mM NaHCO3, 1.2 mM MgSO4, 1.2 mM KH2PO4, 1 mM CaCl2, 0.5% BSA, 10 mM HEPES) containing 3.3 mM glucose and pre-incubated for 30 min in the same buffer. The KRB was then discarded and replaced by fresh buffer containing 3.3 mM glucose for 1 h for basal secretion, followed by an additional 1 h of incubation in KRB containing 16.7 mM glucose. Supernatants were collected and frozen for insulin assays. Thereafter, islets were washed with PBS and extracted with 0.18 N HCl in 70% ethanol for 24 h at 4° C. The acid-ethanol extracts were collected for determination of insulin content. Insulin was determined by a human insulin RIA kit (CIS bio international, Gif-Sur-Yvette, France).

[2] = test system: human islets β-cells; assay: β-cell apoptosis (TUNEL, caspase 3 activation) in human islets, leptin/siRNA study; format: cell-based; settings: for cleaved caspase 3 level: leptin
Protocol: as §1, §2
Western blot analysis. Human islets were maintained in culture medium in nonadherent plastic dishes. One day after isolation, the medium was changed and groups of 200 islets were incubated in culture medium containing 5.5 glucose with or without 10 or 500 nM leptin or 50 nM siRNA. At the end of the incubations, islets were washed in PBS, suspended in 40 μl sample buffer containing 125 mM Tris-HCl (pH 6.8), 4% SDS, 10% glycerol, 0.3% bromphenol blue, 1.8% β-mercaptoethanol and boiled for 5 min. Equivalent amounts of each treatment group were run on 15% SDS polyacrylamide gels. Proteins were electrically transferred to nitrocellulose filters and incubated with biotinylated goat anti-IL-1Ra, mouse anti-caspase 3 (which binds to both, procaspase-3 and activated caspase-3; Pharmingen, San Diego, Calif.), or mouse anti-actin (C-2; Santa Cruz Biotechnology Inc., Santa Cruz, Calif.) antibodies, followed by incubation with horseradish-peroxidase-linked anti-mouse (Santa Cruz Biotechnology Inc.) or streptavidin (Jackson). The emitted light was captured on X-ray film after adding Lumi-Light Western Blotting Substrate (Roche, Basel, Switzerland). As a marker, Kaleidoscope Prestained Standards (Bio Rad, Laboratories inc., Hercules, Calif.) was run in parallel. Between incubations, nitrocellulose membranes were stripped for 30 min at 50° C. in 40 ml of a solution containing 280 μl β-mercaptoethanol, 5 ml 0.5 M Tris-HCl (pH 6.8) and 10% SDS, and then washed for 1 h in Tris-buffered saline containing 0.10/0 Tween-20.
β-cell apoptosis. The free 3′-OH strand breaks resulting from DNA degradation were detected using the terminal deoxynucleotidyl transferase-mediated dUTP nick-end labeling (TUNEL) technique as described in detail (70;76;77). Thereafter, islets were incubated with guinea pig anti-insulin antibody as above, followed by detection using the streptavidin-biotin-peroxidase complex (Zymed Laboratories Inc., South San Francisco, Calif., USA). In parallel to the TUNEL reaction, apoptosis was confirmed by detection of caspase 3 activation as described above (Western blot analysis).

[3] = leptin plus exogenous rh IL-1Ra 500 ng/ml
[4] = plus 500 ng/ml exogenous rhIL-1Ra

Substance	decrease of chronic insulin secretion during the culture period ([1]; leptin, 4 days) [%]	glucose-stimulated insulin secretion ([1]; leptin, 4 days, 5.5 mM glucose)	insulin content ([1]; leptin, 4 days, 5.5 mM glucose)	number of TUNEL-positive β-cells ([2]; 10 nM leptin, 4 days)	33.3 mM glucose-induced apoptosis ([2]; leptin plus 33.3 mM glucose, 4 days)	cleaved caspase 3 level ([2]; 15 hours)	cleaved caspase 3 level ([2]; 48 hours)	β-cell function and insulin content [1, 3]	loss of acute glucose-stimulated insulin release by high glucose and/or siIL-1Ra ([1]; plus exogenous rh IL-1Ra)	insulin content ([1]; siIL-1Ra and/or high glucose plus rh IL-1Ra)	glucose stimulation of insulin release ([1]; siIL-1Ra at 5.5 mM glucose, co-incubation with exogenous rh IL-1Ra)	leptin-induced β-cell apoptosis [2, 3]	β-cell apoptosis induced by 33.3 mM glucose alone [2, 4]	β-cell apoptosis induced by 33.3 mM glucose and siIL-1Ra [2, 4]	siIL-1Ra-induced DNA fragmentation ([2]; siIL-1Ra plus 500 ng/ml exogenous rhIL-1Ra)
leptin: rh leptin (PeproTech); protein encoded by the ob gene	41.65	impaired glucose-stimulated insulin secretion	decreased insulin content	increased the number of TUNEL-positive β-cells	enhanced 33.3 mM glucose-induced apoptosis	did not change baseline cleaved caspase 3 level	an increase became apparent								
Interleukin 1 receptor antagonist [IL-1Ra]								restored β-cell function and insulin content	partially prevented those effects	partially restored	restored glucose stimulation	prevented leptin-induced β-cell apoptosis	protected the β-cells from apoptosis	partially	prevented the effect of siIL-1Ra on DNA fragmentation
